From patent EP1101496A1, “THERAPEUTIC AGENTS FOR ALLERGIC DISEASES” (FUJI YAKUHIN KOGYO KABUSHIKI KAISHA, priority 1998, dated 2000) come the findings set out here.

Series [1] relates to IgE-mediated auricle edema. The series is described as follows: Auricle edema in experimental atopic dermatitis model (anti-DNP IgE sensitization, DNFB elicitation). The series is classed as in vivo, Balb/c mice. The settings on record: Compound Nos. 8 and 10 60 mg/kg s.c., prednisolone 10 mg/kg i.p. How it is done:
Intravenous injection of an anti-2,4-dinitrophenol (DNP) antibody (anti-DNP Ab, monoclonal IgE Ab; its antibody titer was 1 : 512 to 1 : 1024 by a rat heterologous passive cutaneous anaphylaxis reaction using a Wister rat) into a tail vein of female Balb/c mice (7-week old, body weight: 17 to 20 g, purchased from JAPAN SLC, Inc.) at a dose of […] per animal raised passive sensitization. Twenty four hours post-sensitization, 0.1% 2,4-dinitrofluorobenzene (DNFB; Nacalai Tesque, Inc.) in ethanol was painted onto both sides of a pair of mouse auricles at a dose of 10 µL per each side for elicitation.
Fresh unsensitized mice were painted with 0.1% DNFB in ethanol onto their ear in the same manner as aforementioned and served as a control group. Not only immediately prior to elicitation but also 1 hour, 5 hours, daily between Days 1 and 14, and on Day 16 post-elicitation, ear thickness was measured using a dial thickness gauge (Peacock Co.). Each degree of auricle edemas was calculated: Auricular Edema (µm)=(Ear Thickness Post-Elicitation, µm) - (Ear Thickness immediately prior to Elicitation, µm) [formula]
Balb/c mice were passively sensitized with anti-DNP IgE Ab in the same manner as in Example 1. Twenty four hours later, 0.1% DNFB in ethanol was painted onto both sides of a pair of mouse auricles at a dose of 10 µL per each side for elicitation.
Immediately prior to elicitation, 1 hour and on Day 1 post-elicitation, auricle thickness was measured in the same manner as in Example 1. Each therapeutic efficacy is recorded as a percent inhibition wherein the "auricle edema (untreated group)" is used as a control. Auricle Edema Inhibition (%) = [ 1 -(Auricle Edema (Treated Group))/(Auricle Edema (Untreated Group))] × 100 (%) [formula]
Mice were sensitized with anti-DNP IgE Ab and then elicited by painting 0.1% DNFB in ethanol onto both sides of a pair of mouse auricles at a dose of 10 µL per each side 24 hours post-sensitization in the same manner as in Example 1. […] Immediately prior to elicitation, and on Day 7 post-elicitation, auricle thickness was similarly measured. Each therapeutic efficacy is recorded as a percent inhibition wherein the auricle edema in the untreated group is used as a control.
Mice were sensitized with anti-DNP IgE Ab and then elicited by painting 0.1% DNFB in ethanol onto both sides of a pair of mouse auricles at a dose of 10 µL per each side 24 hours post-sensitization in the same manner as in Example 1. […] Immediately prior to elicitation, and on Day 7 post-elicitation, auricle thickness was similarly measured. Each therapeutic efficacy is recorded as a percent inhibition wherein the auricle edema (untreated group) is used as a control.
Mice were sensitized with anti-DNP IgE Ab and then elicited by painting 0.1% DNFB in ethanol onto both sides of a pair of mouse auricles at a dose of 10 µL per each side 24 hours post-sensitization in the same manner as in Example 1. […] Immediately prior to elicitation, at 1 and 4 hours and on Days 1, 3 and 7 post-elicitation, auricle thickness was similarly measured. From each auricle edema (µm) based on the auricle thickness immediately prior to elicitation, especially a prophylactically therapeutic efficacy of the test compound was evaluated.
Mice were sensitized with anti-DNP IgE Ab and then elicited by painting 0.1% DNFB in ethanol onto both sides of a pair of mouse auricles at a dose of 10 µL per each side 24 hours post-sensitization in the same manner as in Example 1. A solution of a test metalloproteinase inhibitor (Compound No. 8; 50 µg/ear/dose, twice a day) in ethanol was painted onto both sides of a pair of the mouse auricles 1 hour pre-elicitation, 0.25, 3, 4, 5 and 6 days post-elicitation (5 animals per group). Immediately prior to elicitation, at 0.5, 1 and 4 hours and on Days 1, 3 and 7 post-elicitation, auricle thickness was similarly measured. Each amount of auricle edemas was calculated (average± standard deviation). […]

A short description of series [2]: Mouse body weight gain (side-effect index). The series is classed as in vivo, mice. The settings on record: average ± standard deviation; once a day Days 0-5; Compound No. 8 or 10 60 mg/kg s.c., prednisolone 10 mg/kg i.p. How it is done: Next the mice were measured for their body weight.
For series [3], the system named is Experimental Bronchial Asthma Model. The series is described as follows: Experimental bronchial asthma model (ovalbumin-sensitized, airway resistance and asthmatic death). The settings on record: for % Survival: asthmatic death within several minutes after elicitation. The series is classed as in vivo, Guinea pigs.
Description: Guinea pigs (female, Std:Hartley, 3 weeks old, 200 to 250 g) were individually housed in a plastic chamber (width, 200 mm; depth, 300 mm; height, 167 mm). Aqueous ovalbumin (10 mg/mL) was administered to the guinea pigs once a day for sensitization by 10 min. inhalation with a nebulizer (5B, Nippon Shoji K.K.: flow rate, 6 L/min.) at a dose of 10 mg/mL during 8 cosecutive days. On Day 7 after the final sensitization, the guinea pigs were housed in a plastic chamber and inhaled using a nebulizer with a solution of ovalbumin (10 mg/mL) in physiological saline for 1 min. for elicitation (Matsumoto, T., et al., The Journal of Pharmacology and Experimental Therapeutics, 269: 1236-1244, 1994). The number of animals employed in the experiment was set to the extent there are at least 6 as individuals escaping asthmatic death. A solution of a test metalloproteinase inhibitor (Compound No. 8, 15 mg/kg) in water for injection was administered subcutaneously twice, i.e., 24 hours and 2 hours prior to elicitation. Similarly, the solvent alone was also administered to a negative control group. A suspension of prednisolone (10 mg/kg) in 0.5% aqueous methyl cellulose was administered orally twice, i.e., 24 hours and 2 hours prior to elicitation. Similarly, the solvent alone was also administered to another control group.
The evaluation for efficacies was conducted in terms of airway resistance. For this purpose, an apparatus dedicated to the measurement of airway resistance (K.K. Medical Agent) was employed. Measurement includes setting a guinea pig in a test chamber under a not-anesthetized condition, applying sinusoidal pressure waves of 30 Hz components to a part below the neck of the animal from the back side of the chamber, measuring respiratory waves of 30 Hz components leaking through the mouth (volume of 30 Hz air flow passing through the respiratory tract) in front of the neck, and calculating airway resistance mechanically. Measurement was carried out immediately prior to the first drug treatment (24 hours before elicitation), just prior to elicitation, 10 minutes, 1, 2, 4, 6, and 8 hours post-elicitation.
It was visually observed by a person carrying out said test in terms of the appearance of cyanosis or suffocative death (asthmatic death) due to respiratory obstruction.
Guinea pigs were sensitized with ovalbumin and asthma was induced on Day 7 after final sensitization in the same manner as in Example 18. The number of animals employed in the experiment was set to the extent there are at least 6 as individuals escaping asthmatic death (8 to 11 animals/group). In the same manner as in Example 18, the animals were measured for airway resistance mechanically and each percent change (%) in airway resistance was calculated (each value just prior to elicitation was set as 100%). Each percent amelioration in airway resistance was calculated from the percent changes in airway resistance according to the following formula: Amelioration in Airway Resistance (%) = 1 -[((Percent Change in Airway Resistance after Drug-Administration)-(Value just prior to Challenge (100)))/((Percent Change in Airway Resistance after Solvent -Administration)-(Value just prior to Challenge (100)))]× 100 [formula]
A solution of a test metalloproteinase inhibitor (Compound No. 22: 15 mg/kg or 30 mg/kg) in water for injection or the solvent alone as a negative control was administered to each animal subcutaneously twice, i.e., 24 hours and 2 hours prior to elicitation.
Series [4] can be described thus: Body weight gain in sensitized mice (experimental atopic dermatitis model). The settings on record: painted on auricles twice a day; Compound No. 8 50 µg/ear/dose, prednisolone 5 µg/ear/dose; Days 1, 4 and 7; versus solvent control (ethanol). In kind it is in vivo. How it is done:
Experimental atopic dermatitis model mice sensitized in the same manner as in Example 1 were examined for influence on body weight gains.
A solution of a test metalloproteinase inhibitor (Compound No. 8; 50 µg/ear/dose, twice a day) in ethanol or a solution of prednisolone (5 µg/ear/dose, twice a day) in ethanol was administered to mice (5 animals per group) by painting onto both sides of a pair of the auricles, not only one hour prior to elicitation but also 0.25, 3, 4, 5 and 6 days post-elicitation. Each mouse was measured for its body weight not only immediately before the start in painting but also on Days 1, 4 and 7 after the start in painting. Each gain in body weight was calculated and considered to indicate an effect on body weight changes affected by said treatments.

Setting [5] is: Compound No. 22 15 mg/kg s.c., prednisolone 10 mg/kg orally.
Where [6] appears, read: suffocative death due to cyanosis just after elicitation, Compound No. 8 15 mg/kg s.c., prednisolone 10 mg/kg orally, 24 and 2 hours prior to elicitation.

As for `CC(=O)O.CNC(=O)[C@H](Cc1ccc(CNC(C)=N)cc1)NC(=O)[C@H](CC(C)C)C(CCCc1ccccc1)C(=O)NO` (single isomer, unassigned) [Compound No. 10, N-[4-(N-hydroxyamino)-2(R)-isobutyl-3(R or S)-(3-phenyltrimethylene)succinyl]-L-4'-acetimidoyliminomethylenephenylalanine-N-methylamide 1 acetate], the “% Inhibition IPR” value in series [1] (auricle edema 1 hour post-elicitation, treatment 24 & 2 hours prior to DNFB-elicitation) worked out at 38.2%. Besides, in series [1] (auricle edema Day 1 post-elicitation, treatment 24 & 2 hours prior to DNFB-elicitation), the “% Inhibition LPR” value was 39.2%. Also, the “% Inhibition vLPR” value in series [1] (auricle edema Day 7 post-elicitation, daily from 3 to 6 days after DNFB-elicitation) is reported as 44.7%. For the same compound, in series [2], the “Body Weight Gain, Day 5” value was 1.08± 0.39; the “Body Weight Gain, Day 7” value stood at 1.62± 0.26; the “Body Weight Gain, Day 10” value is listed as 1.40± 0.30.

As to `CC(=O)O.CNC(=O)[C@H](Cc1ccc(NC(=N)N)cc1)NC(=O)[C@@H](CC(=O)NO)CC(C)C` [Compound No. 22, N-[4-(N-hydroxyamino)-2(R)-isobutylsuccinyl]-L-4'-guanidophenylalanine-N-methylamide 1 acetate], in series [3] (1 hour after elicitation, Compound No. 22 15 mg/kg s.c., prednisolone 10 mg/kg orally), the “% Amelioration in Airway Resistance, 1 Hour” value stood at 56.4%. Besides, the “% Amelioration in Airway Resistance, 6 Hours” value in series [3] (6 hours after elicitation, Compound No. 22 15 mg/kg s.c., prednisolone 10 mg/kg orally) is on record as 102.2%. For the same compound, in series [3] (Compound No. 22 15 mg/kg s.c., prednisolone 10 mg/kg orally, 24 and 2 hours prior to elicitation), the “% Amelioration in Airway Resistance, Immediately after Elicitation” value was found to be 12.3%. Besides, the cyanosis entry in series [3] (after elicitation, s.c. administration) is given as “moderation in cyanosis is also observed”. The “% Survival” value in series [3] (setting [5]) worked out at 88.9%.

`C[C@]12C=CC(=O)C=C1CC[C@@H]1[C@@H]2[C@@H](O)C[C@@]2(C)[C@H]1CC[C@]2(O)C(=O)CO` [Prednisolone, prednisolone, reference compound]: in series [2], the “Body Weight Gain, Day 5” value was found to be 0.00± 0.26; the “Body Weight Gain, Day 7” value is 0.03± 0.57; the “Body Weight Gain, Day 10” value is on record as 0.97± 0.47. Further, the “gain in body weight (FIG. 9)” value in series [4] was “below that in the solvent control group”. Also, in series [3] (setting [5]), the “% Survival” value is reported as 75.0%. In series [3] (setting [6]), the “% Mortality” value is recorded as 22.2% and the “(Dead Animals)/(Tested Animals)” value is given as 2/9.
